Consider five molecules from PubChem BioAssay (NCI).

Among the test systems are SNB-19 CNS; EKVX NSCLC; TK-10 renal; RXF 393 renal; T-47D breast; MDA-N; HOP-62 NSCLC; K-562 leukemia; MDA-MB-231 breast; HCC-2998 colon; MCF7 breast; MALME-3M melanoma; CCRF-CEM leukemia; M14 melanoma; 786-0 renal; LOX IMVI melanoma; MDA-MB-435; OVCAR-5 ovarian; HL-60(TB) leukemia; SW-620 colon.
What all share (test): inhibition of tumour cell growth, NCI panel, 48 h

The structures appear in SMILES notation.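 Growth conditions: 96-well plates. Treatment: test compound, 48 hours, 5 concentrations. Analysis: linear interpolation between bracketing concentrations; unreached endpoints set to highest concentration. TGI marks complete inhibition of growth.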

`COc1ccc(Nc2nc3ccccc3nc2C(=O)O)cc1`: the TGI with SNB-19 CNS, in the test on EKVX NSCLC, in the test with TK-10 renal, with RXF 393 renal, in the test on T-47D breast and in the test with MDA-N was > 100 µM in each case. The TGI with HOP-62 NSCLC is > 100 µM; in the test with K-562 leukemia it was > 100 µM; with MDA-MB-231 breast, > 100 µM; in the test on HCC-2998 colon, 23.1 µM; in the test with MCF7 breast, > 100 µM; with MALME-3M melanoma, > 100 µM. Moreover, the TGI with CCRF-CEM leukemia, in the test with M14 melanoma, in the test with 786-0 renal, in the test with LOX IMVI melanoma, in the test on MDA-MB-435 and in the test on OVCAR-5 ovarian was > 100 µM in each case. Further, the TGI with HL-60(TB) leukemia and in the test on SW-620 colon was > 100 µM each time.

For the molecule `CCCCCCCCCC(=O)CC(=O)c1c(O)cc(O)cc1O`, the TGI with SNB-19 CNS is 68.1 µM; in the test on EKVX NSCLC, > 75 µM; in the test on TK-10 renal, > 75 µM; in the test on RXF 393 renal, 31.1 µM; in the test on T-47D breast it was > 75 µM; in the test with MDA-N, 38 µM. The TGI was 32.5 µM in the test with HOP-62 NSCLC; 36.3 µM in the test with K-562 leukemia; > 75 µM in the test with MDA-MB-231 breast; 31.4 µM in the test with HCC-2998 colon; > 75 µM in the test with MCF7 breast; 32.1 µM in the test on MALME-3M melanoma. Besides, the TGI with CCRF-CEM leukemia was > 75 µM; in the test on M14 melanoma, 39 µM; in the test on 786-0 renal it was > 75 µM; with LOX IMVI melanoma, 35.4 µM; in the test with MDA-MB-435, 39.1 µM; in the test with OVCAR-5 ovarian, 48.2 µM. For the same molecule, the TGI in the test on HL-60(TB) leukemia is 42.8 µM; in the test on SW-620 colon, > 75 µM.

Take `COc1ccc(C2C(Cl)C(=O)N2NC(=O)c2ccc(N)cc2)cc1OC` (stereo not given): the TGI stood at 30.5 µM in the test with SNB-19 CNS; 35.2 µM in the test with EKVX NSCLC; 30.7 µM with TK-10 renal; 30.4 µM in the test on RXF 393 renal; 24.9 µM in the test on T-47D breast; 23.5 µM in the test with MDA-N. Also, the TGI in the test on HOP-62 NSCLC was found to be 32.6 µM; with K-562 leukemia, 16.5 µM; in the test on MDA-MB-231 breast it was 39.7 µM; with HCC-2998 colon, 19.9 µM; in the test with MCF7 breast it was 24.7 µM; in the test on MALME-3M melanoma it was 25.6 µM. For the same molecule, the TGI with CCRF-CEM leukemia was 4.45 µM; in the test on M14 melanoma it was 22.6 µM; in the test with 786-0 renal, 8.59 µM; with LOX IMVI melanoma it was 3.55 µM; in the test on MDA-MB-435 it was 19.1 µM; in the test on OVCAR-5 ovarian, 34.8 µM. In addition, the TGI in the test on HL-60(TB) leukemia was 4.54 µM; in the test with SW-620 colon, 11.2 µM.

Take `CCOC(=O)C(Cc1cn(S(=O)(=O)c2ccc(C)cc2)cn1)P(=O)(OCC)OCC` (stereo not given): the TGI in the test with SNB-19 CNS, with EKVX NSCLC, in the test on TK-10 renal, with RXF 393 renal, in the test with T-47D breast and with MDA-N was > 100 µM in each case. Also, the TGI in the test on HOP-62 NSCLC, in the test on K-562 leukemia, in the test with MDA-MB-231 breast, with HCC-2998 colon, in the test with MCF7 breast and in the test on MALME-3M melanoma was > 100 µM each time. The TGI with CCRF-CEM leukemia, with M14 melanoma, in the test on 786-0 renal, in the test with LOX IMVI melanoma, in the test on MDA-MB-435 and with OVCAR-5 ovarian was > 100 µM in each case. Besides, the TGI in the test with HL-60(TB) leukemia and in the test with SW-620 colon was > 100 µM each time.

As to `N#CC(c1ccccc1)(c1ccccc1)[C@@H](c1ccccc1)[C@H](Cc1ccccc1)NS(=O)(=O)c1ccccc1`, the TGI in the test with SNB-19 CNS, in the test on EKVX NSCLC, in the test with TK-10 renal, in the test with RXF 393 renal, with T-47D breast and in the test on MDA-N was > 100 µM each time. Further, the TGI in the test on HOP-62 NSCLC, with K-562 leukemia, with MDA-MB-231 breast, in the test with HCC-2998 colon, with MCF7 breast and in the test with MALME-3M melanoma was > 100 µM each time. In addition, the TGI in the test on CCRF-CEM leukemia, with M14 melanoma, in the test on 786-0 renal, in the test with LOX IMVI melanoma, with MDA-MB-435 and with OVCAR-5 ovarian was > 100 µM each time. Moreover, the TGI in the test with HL-60(TB) leukemia and with SW-620 colon was > 100 µM in each case.
